# According to US9546176B2, “Small molecule bicyclic and tricyclic CFTR correctors” (DISCOVERYBIOMED, INC., priority 2012, dated 2017):
# Read-outs that look alike come from different tables or passages of the source.
# Biological target: T1, delF508-CFTR (Homo sapiens, UniProt P13569, DEL508-508)
# T1 construct: endogenous in cells; host or cells: CFBE41o- human CF bronchial epithelial cells (delF508 homozygous)
# Assay: SPQ halide-sensitive fluorescence dye assay for rescue of halide efflux (8-point concentration-response)
# Type: cell-based
# Details: for potency and efficacy compared with VX-809 in SPQ assay: versus VX-809
# Experimental: The method of profiling can include detecting the rescue of halide efflux from a cell. The step of detecting a rescue of halide efflux from the cell can be monitored using the halide quenched dye 6-methoxy-N-(3-sulfopropyl)-quinolinium (SPQ, Molecular Probes Inc., Eugene, Oreg.). In this method, cells are treated with a compound as described herein for a period of time (e.g., 48 hours). The rescue or correction of halide efflux is then detected using the SPQ assay with the halide dye. […] Optionally, the halide efflux is chloride efflux. The method of screening can further comprise performing the method with multiple concentrations of the compound.
# The compounds were initially subjected to the SPQ halide-sensitive fluorescence dye profiling assay for rescue or correction of membrane chloride ion permeability or transport with an 8-point concentration-response curve. The EC50 values for the compounds described herein were determined using SPQ (Table 1). The ΔSPQ value was calculated by determining the difference between the maximum and minimum SPQ values for the compounds.
# To perform the SPQ high throughput screening assay, CFBE41o-cells were seeded into 96-well microtiter plates and were loaded with the fluorescent halide-sensitive dye, SPQ, in serum-containing culture medium. Certain wells were loaded with known positive control corrector molecules, including the industry standard Vertex 809 (VX-809; Vertex Pharmaceuticals, Cambridge, Mass.) at 3 μM, which is the maximally effective profiling dose for VX-809. The test compounds were loaded into wells and were tested in triplicate wells at a 10 μM dose and incubated over 48 hours at room temperature. During the 48 hour period, SPQ was absorbed. Plates were washed in a sodium chloride (NaCl) based Ringer and read once over two minutes to set the baseline SPQ fluorescence activity. Then, NaCl was replaced by sodium nitrate (NaNO3) based Ringer. The plates were read twice over four minutes. The primary high throughput screen (HTS) data were analyzed to detect any function of rescued delF508-CFTR under basal conditions. The plate was read up to two times to complete the SPQ HTS assay.
# [1] = CFBE41o- cells, 48 h, read-out: SPQ EC50
# T1 sequence (P13569 with tags, fused parts or gaps DEL508-508): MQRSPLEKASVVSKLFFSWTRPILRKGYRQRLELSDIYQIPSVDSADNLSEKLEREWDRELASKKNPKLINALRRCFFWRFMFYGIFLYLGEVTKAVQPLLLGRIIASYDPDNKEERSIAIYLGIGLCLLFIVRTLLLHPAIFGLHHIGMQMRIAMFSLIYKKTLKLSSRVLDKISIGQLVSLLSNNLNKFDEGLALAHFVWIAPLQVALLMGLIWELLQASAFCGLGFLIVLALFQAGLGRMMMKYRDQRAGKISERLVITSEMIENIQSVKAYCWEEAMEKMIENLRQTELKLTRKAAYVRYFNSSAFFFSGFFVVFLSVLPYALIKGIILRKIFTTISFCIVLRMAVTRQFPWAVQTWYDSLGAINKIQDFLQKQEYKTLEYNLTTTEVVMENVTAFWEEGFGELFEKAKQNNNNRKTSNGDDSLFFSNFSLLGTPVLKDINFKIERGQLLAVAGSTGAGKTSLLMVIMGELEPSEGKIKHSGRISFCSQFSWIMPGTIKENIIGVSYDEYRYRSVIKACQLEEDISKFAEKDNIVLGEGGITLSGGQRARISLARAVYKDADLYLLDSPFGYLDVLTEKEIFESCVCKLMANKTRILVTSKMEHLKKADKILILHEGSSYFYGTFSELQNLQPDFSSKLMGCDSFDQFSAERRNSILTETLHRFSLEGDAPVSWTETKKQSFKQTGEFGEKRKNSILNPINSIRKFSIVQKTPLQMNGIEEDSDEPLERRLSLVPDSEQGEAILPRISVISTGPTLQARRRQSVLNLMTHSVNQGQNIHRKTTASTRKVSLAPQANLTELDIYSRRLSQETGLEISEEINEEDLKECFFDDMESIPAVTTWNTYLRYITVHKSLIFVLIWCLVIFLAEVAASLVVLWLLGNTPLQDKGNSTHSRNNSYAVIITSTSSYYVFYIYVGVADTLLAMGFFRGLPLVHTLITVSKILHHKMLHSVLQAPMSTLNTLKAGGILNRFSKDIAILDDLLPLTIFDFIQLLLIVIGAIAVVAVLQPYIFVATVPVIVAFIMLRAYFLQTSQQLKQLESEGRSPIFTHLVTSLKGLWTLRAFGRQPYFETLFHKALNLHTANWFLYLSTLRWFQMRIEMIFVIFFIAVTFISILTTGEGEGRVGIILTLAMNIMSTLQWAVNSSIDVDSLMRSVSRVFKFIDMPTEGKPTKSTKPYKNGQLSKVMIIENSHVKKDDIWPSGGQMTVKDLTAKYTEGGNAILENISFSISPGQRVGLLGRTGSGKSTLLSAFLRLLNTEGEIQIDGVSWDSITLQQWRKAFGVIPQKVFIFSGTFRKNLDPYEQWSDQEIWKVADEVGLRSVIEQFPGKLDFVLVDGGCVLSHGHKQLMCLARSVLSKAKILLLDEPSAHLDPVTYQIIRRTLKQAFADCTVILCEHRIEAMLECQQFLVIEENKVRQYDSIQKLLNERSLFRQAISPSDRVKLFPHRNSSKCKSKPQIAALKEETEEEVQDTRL
Compound,"ΔSPQ (difference between maximum and minimum SPQ values) (CFBE41o- cells, 48 h)",EC50 [1],"SPQ EC50 (CFBE41o- cells, 48 h)",further results
CSc1nc(SCC(=O)O)c2sc3c(c2n1)COC(C)(C)C3 [Compound 2],4862 RFU,15.8 µM,,
Cc1cn2c3c(=O)n(C)c(=O)n(C)c3nc2n1-c1ccccc1O [Compound A-1],,,No effect,
Cc1cn2c3c(=O)n(C)c(=O)n(C)c3nc2n1-c1cccc(O)c1 [Compound A-2],4000 RFU,8.9 µM,,potency and efficacy compared with VX-809 in SPQ assay: superior potency and efficacy to VX-809
Cc1cn2c3c(=O)n(C)c(=O)n(C)c3nc2n1-c1ccc(O)cc1 [Compound A-3],2100 RFU,6.5 µM,,potency and efficacy compared with VX-809 in SPQ assay: superior potency and efficacy to VX-809
Cc1cn2c3c(=O)n(C)c(=O)n(C)c3nc2n1-c1ccccn1 [Compound A-4],,,No effect,
Cc1cn2c3c(=O)n(C)c(=O)n(C)c3nc2n1-c1cccnc1 [Compound A-5],,,No effect,
Cc1cn2c3c(=O)n(C)c(=O)n(C)c3nc2n1CCO [Compound A-7],,,No effect,
Cc1cn2c3c(=O)n(C)c(=O)n(C)c3nc2n1CCN(C)C [Compound A-8],,,No effect,
Cc1cn2c3c(=O)n(C)c(=O)n(C)c3nc2n1CC[N+](C)(C)C [Compound A-9],,,No effect,
Cc1cn2c3c(=O)n(C)c(=O)n(C)c3nc2n1CCN1CCOCC1 [Compound A-10],,,No effect,
Cn1c(=O)c2nc(N3CCNCC3)[nH]c2n(C)c1=O [Compound B-2],,,No effect,
COc1ccc(CN2CCN(c3nc4c(=O)n(C)c(=O)n(C)c4[nH]3)CC2)cc1 [Compound B-7.1],800 RFU,0.9 µM,,potency and efficacy compared with VX-809 in SPQ assay: superior potency and efficacy to VX-809
COc1ccc(CN2CCN(c3nc4c(=O)n(C)c(=O)n(C)c4[nH]3)CC2)cc1OC [Compound B-7.2],,> 30 µM,,
CCOc1ccc(CN2CCN(c3nc4c(=O)n(C)c(=O)n(C)c4[nH]3)CC2)cc1 [Compound B-7.3],,3.8 µM,,
CSc1ccc(CN2CCN(c3nc4c(=O)n(C)c(=O)n(C)c4[nH]3)CC2)cc1 [Compound B-7.4],,,No effect to inhibitory,
Cc1ccc(CN2CCN(c3nc4c(=O)n(C)c(=O)n(C)c4[nH]3)CC2)cc1 [Compound B-7.5],,,No effect,
Cn1c(=O)c2nc(N3CCN(Cc4ccc(OC(F)(F)F)cc4)CC3)[nH]c2n(C)c1=O [Compound B-7.6],,,No effect,
Cn1c(=O)c2nc(N3CCN(Cc4ccc(C(F)(F)F)cc4)CC3)[nH]c2n(C)c1=O [Compound B-7.7],,,No effect,
Cn1c(=O)c2nc(N3CCN(Cc4ccc5c(c4)OCCO5)CC3)[nH]c2n(C)c1=O [Compound B-7.8],,,No effect,
COc1ccccc1CN1CCN(c2nc3c(=O)n(C)c(=O)n(C)c3[nH]2)CC1 [Compound B-7.9],2800 RFU,3.2 µM,,potency and efficacy compared with VX-809 in SPQ assay: superior potency and efficacy to VX-809
COc1cccc(CN2CCN(c3nc4c(=O)n(C)c(=O)n(C)c4[nH]3)CC2)c1 [Compound B-7.10],3750 RFU,7.1 µM,,potency and efficacy compared with VX-809 in SPQ assay: superior potency and efficacy to VX-809
COc1ccc(C(=O)N2CCN(c3nc4c(=O)n(C)c(=O)n(C)c4[nH]3)CC2)cc1 [Compound B-7.12],,6.2 µM,,
COc1ccc(N2CCN(c3nc4c([nH]3)c(=O)n(C)c(=O)n4C)CC2)cc1 [Compound B-7.17],,3.5 µM,,
COCCCCN1CCN(c2nc3c(=O)n(C)c(=O)n(C)c3[nH]2)CC1 [Compound B-7.20],,,No effect,
CCCCn1c(C)cn2c3c(=O)n(CCC)c(=O)n(C)c3nc12 [Compound I-2],3102 RFU,,,EC50: > 30 µM

# The next lines start with results.
"ΔSPQ (difference between maximum and minimum SPQ values) (CFBE41o- cells, 48 h)",EC50 [1],"SPQ EC50 (CFBE41o- cells, 48 h)",Compound,further results
,9.7 µM,,Cn1c(=O)c2nc(N3CCOCC3)[nH]c2n(C)c1=O [Compound B-1],
,10 µM,,Cn1c(=O)c2nc(N3CCN(c4ccccn4)CC3)[nH]c2n(C)c1=O [Compound B-3],
,,No effect,Cn1c(=O)c2[nH]c(N3CCN(c4ccncc4)CC3)nc2n(C)c1=O [Compound B-4],
,,No effect,Cn1c(=O)c2nc(N3CCN(c4ncccn4)CC3)[nH]c2n(C)c1=O [Compound B-5],
,,No effect,Cn1c(=O)c2[nH]c(N3CCN(c4ccc(O)cc4)CC3)nc2n(C)c1=O [Compound B-6],
,,No effect,Cn1c(=O)c2nc(N3CCN(Cc4ccc(O)cc4)CC3)[nH]c2n(C)c1=O [Compound B-7],
,,No effect,Cn1c(=O)c2nc(NCCO)[nH]c2n(C)c1=O [Compound B-8],
,,No effect,CN(C)CCNc1nc2c(=O)n(C)c(=O)n(C)c2[nH]1 [Compound B-9],
,,No effect,Cn1c(=O)c2[nH]c(NCCN)nc2n(C)c1=O [Compound B-11],
,,No effect,Cn1c(=O)c2[nH]c(NCCSc3ncccn3)nc2n(C)c1=O [Compound B-12],
,,No effect,Cn1c(=O)c2[nH]c(NCCNc3ccccn3)nc2n(C)c1=O [Compound B-13],
,,No effect,Cn1c(=O)c2nc(N3CCN(CCO)CC3)[nH]c2n(C)c1=O [Compound B-14],
,,No effect,Cn1c(=O)c2[nH]c(N3CCC(O)CC3)nc2n(C)c1=O [Compound B-15],
3801 RFU,17.8 µM,,C=CCn1c(=O)c2c(nc3n(CCC)c(C)cn23)n(C)c1=O [Compound I-1],
5305 RFU,> 30 µM,,C/C=C/Cn1c(=O)c2c(nc3n(C(C)CC)c(C)cn23)n(C)c1=O (stereo not drawn) [Compound I-3],
11108 RFU,5.4 µM,,C=CCn1c(=O)c2c(nc3n(C(C)CC)c(C)c(C)n23)n(C)c1=O (stereo not drawn) [Compound I-4],
13531 RFU,> 30 µM,,Cc1cccc(-n2c(C)c(C)n3c4c(=O)n(C)c(=O)n(C)c4nc23)c1 [Compound I-5],
6023 RFU,8.9 µM,,CCn1c(=O)c2c(nc3n(-c4cccc(C)c4)c(C)c(C)n23)n(C)c1=O [Compound I-6],
5779 RFU,10.1 µM,,CCn1c(=O)c2c(nc3n(-c4ccc(F)cc4)c(C)c(C)n23)n(C)c1=O [Compound I-7],
6975 RFU,3.6 µM,,CCn1c(=O)c2c(nc3n(-c4ccc(C)cc4)c(C)c(C)n23)n(C)c1=O [Compound I-8],
3793 RFU,3.7 µM,,CCn1c(=O)c2c(nc3n(-c4ccc(C)cc4)c(C)cn23)n(C)c1=O [Compound I-9],
4005 RFU,4 µM,,CCn1c(=O)c2c(nc3n(-c4ccccc4)c(C)c(C)n23)n(C)c1=O [Compound I-10],
3705 RFU,> 30 µM,,Cc1ccc(C)c(Cn2c(=O)c3c(nc4[nH]c(C)c(C)n43)n(C)c2=O)c1 [Compound I-11],
6259 RFU,> 30 µM,,CCCn1c(C)cn2c3c(=O)n(Cc4ccccc4)c(=O)n(C)c3nc12 [Compound I-12],
